Experiments:
T-cells = test: In vivo activity: CD25 expression on CD4+ or CD8+ T-cells of mice stimulated with anti-CD3 antibody; conditions: 2 μg anti-CD3 antibody, 24 hours
Procedure, shortened: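 C57BL/6 or BALB/c mice dosed with inhibitor (IV, IP, SC or PO, e.g. BID or TID), then stimulated with 2 μg anti-CD3 antibody. Plasma IL-2, IFNγ, TNFα at 8 h and CD25 on CD4+/CD8+ T-cells by flow cytometry at 24 h; fold change over vehicle plus anti-CD3, binned A–E.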

T-cell = test: CD25 cell surface staining on T-cells stimulated with anti-CD3 antibody alone (Biological Example 2); assay type: cell-based; conditions: primary human total T-cells, baseline = anti-CD3/anti-CD28 stimulated cells without inhibitor, read-out: CD25 staining, Anti-CD3 stimulation, fold change over baseline; for fold induction at 1 µM: 1 μM compound; for fold induction at 8 µM: 8 μM compound

Row | Structure (SMILES) | CD4+ T-cell % CD25+ (T-cells; 90 mpk PO BID) | CD8+ T-cell % CD25+ (T-cells; 90 mpk PO BID) | CD4+ T-cell % CD25+ (T-cells; 135 mpk PO BID) | CD8+ T-cell % CD25+ (T-cells; 135 mpk PO BID) | CD4+ T-cell % CD25+ (T-cells; 180 mpk PO BID) | CD8+ T-cell % CD25+ (T-cells; 180 mpk PO BID) | fold induction at 1 µM (T-cell) | fold induction at 8 µM (T-cell)
1 | Cn1cnnc1CC1(c2cccc(N3Cc4c(cc(CN5CC[C@H](F)C5)cc4C(F)(F)F)C3=O)c2)COC1 [Compound 410, 6-{[(3S)-3-fluoropyrrolidin-1-yl]methyl}-2-(3-{3-[(4-methyl-4H-1,2,4-triazol-3-yl)methyl]oxetan-3-yl}phenyl)-4-(trifluoromethyl)-2,3-dihydro-1H-isoindol-1-one] | D (D indicates 1.00-1.50) | D (D indicates 1.00-1.50) | D (D indicates 1.00-1.50) | D (D indicates 1.00-1.50) | D (D indicates 1.00-1.50) | D (D indicates 1.00-1.50) | > 1 | > 1
2 | C[C@@H](c1cc2c(c(C(F)(F)F)c1)CN(c1cccc(C3(Cc4nncn4C)COC3)c1)C2=O)N1CCC(C)(F)CC1 [Example 553a, (S)-6-(1-(4-fluoro-4-methylpiperidin-1-yl)ethyl)-2-(3-(3-((4-methyl-4H-1,2,4-triazol-3-yl)methyl)oxetan-3-yl)phenyl)-4-(trifluoromethyl)isoindolin-1-one] | – | – | D (D indicates 1.00-1.50) | D (D indicates 1.00-1.50) | – | – | > 1 | –
3 | C[C@@H](c1cc2c(c(C(F)(F)F)c1)CN(c1cccc(C3(Cc4nncn4C)COC3)c1)C2=O)N1C[C@H]2C[C@H]2C1 [Compound 541a, 6-((1S)-1-(3-azabicyclo[3.1.0]hexan-3-yl)ethyl)-2-(3-(3-((4-methyl-4H-1,2,4-triazol-3-yl)methyl)oxetan-3-yl)phenyl)-4-(trifluoromethyl)isoindolin-1-one] | – | – | D (D indicates 1.00-1.50) | D (D indicates 1.00-1.50) | – | – | > 1 | –
4 | Cn1cnnc1CC1(c2cccc(N3Cc4c(cc(CN5CCC[C@H](F)C5)cc4C(F)(F)F)C3=O)c2)COC1 [Compound 432, 6-{[(3S)-3-fluoropiperidin-1-yl]methyl}-2-(3-{3-[(4-methyl-4H-1,2,4-triazol-3-yl)methyl]oxetan-3-yl}phenyl)-4-(trifluoromethyl)-2,3-dihydro-1H-isoindol-1-one] | – | – | D (D indicates 1.00-1.50) | D (D indicates 1.00-1.50) | – | – | > 1 | –
5 | Cn1cnnc1CC1(c2cccc(N3Cc4c(cc(CN5CC[C@@H](C#N)C5)cc4C(F)(F)F)C3=O)c2)COC1 [Compound 421, (R)-1-((2-(3-(3-((4-methyl-4H-1,2,4-triazol-3-yl)methyl)oxetan-3-yl)phenyl)-3-oxo-7-(trifluoromethyl)isoindolin-5-yl)methyl)pyrrolidine-3-carbonitrile] | E (E indicates <1.00) | E (E indicates <1.00) | E (E indicates <1.00) | E (E indicates <1.00) | E (E indicates <1.00) | E (E indicates <1.00) | > 1 | > 1
